Read-outs that look alike come from different tables or passages of the source.
Experiments:
PC3 cell line = assay: WST-1 cell proliferation assay (Compound 2); assay type: cell-based; conditions: Homo sapiens
Description: All growth inhibition experiments were repeated on different occasions at least twice. Potency was determined by calculating the IC50 value using the data describing the growth inhibition curve. A reference compound was included in each plate assay to monitor inter-assay variation and the IC50 value for the reference compound was used as part of the acceptance criteria for the assay. […] Next, compound was added to the designated well at a dilution of 1:10 (i.e., 20 μL of the diluted compound was added to 180 μL of culture media in each well). The final dilution of compound was 1:500, which yielded a final DMSO concentration of 0.2% in each well. All concentrations were performed in triplicate. Additionally, each plate tested contained cells treated with a reference compound in order to evaluate interassay variation and the IC50 value generated was used as criteria in accepting the test data. […] Cell proliferation was assessed using the WST-1 assay, which is based on measurement of metabolic activity via the reduction of tetrazolium salts to formazan salts. […] Absorbance was measured at 450 nm on the VICTOR™ X2 multilabel plate reader (PerkinElmer). […] The software (XLfit from IDBS) calculated the percentage inhibition at each concentration of compound by normalizing to the DMSO control values. […] Percentage inhibition curves were plotted and IC50 values calculated.

4EBP1 (T46) = assay: p-4E-BP1 (T46) in PC-3 cell lysates, ELISA (Compound 2); assay type: cell-based; conditions: Homo sapiens; PC-3, 1 hour; read-out: mTORC1 4EBP1 (T46) IC50
Description: The direct substrate for mTORC1 was 4E-BP1([…]) and the indirect downstream substrate was S6RP (S235/[…]). The direct substrate for mTORC2 was AKT (S473) and the indirect downstream substrates measured were GSK3β(S9) and PRAS40 ([…]). Additionally, the phosphorylation status of AKT (T308), a phosphorylation site for PDK1, was monitored. Concentration-response curves were plotted and IC50 values determined. Cells were plated at the required density as described in the previous section detailing the Meso Scale assays. […] After incubation with compound, the culture medium was removed via aspiration. Then the plate was placed on ice and 35 μL of the Invitrogen Cell Extraction Buffer (containing fresh PMSF and protease inhibitor cocktail) were added to each well. The treated cells were allowed to undergo lysis for a total of 30 minutes on ice and then shaken for 2 minutes at 4° C. At this point, the plate could be either frozen at -80° C. for later analysis or analyzed immediately with the Invitrogen 4E-BP1[[…]] assay kit. Standards were prepared according to the supplied protocol and 100 μL of each standard was added to appropriate wells. Samples containing Cell Extraction buffer only or diluent buffers only also were included for background controls. […] Absorbance was measured at 450 nm on the VICTORTM X2 multilabel plate reader (Perkin Elmer).

[1] = Compound 2 concentrations in plasma by LC-MS/MS; assay type: in vivo, SCID mice; conditions: for concentration at 0.5 h / concentration at 1 h / concentration at 3 h / concentration at 6 h / concentration at 10 h / concentration at 24 h / AUC(0-t): female, SCID, mouse, plasma; for concentration at 0.5 h / concentration at 1 h / concentration at 3 h / concentration at 6 h / concentration at 10 h / concentration at 24 h: oral; for AUC(0-t): po

CCN1C(=O)CNc2ncc(-c3ccc(-c4nc[nH]n4)nc3C)nc21 [Compound 2, 1-ethyl-7-(2-methyl-6-(1H-1,2,4-triazol-3-yl)pyridin-3-yl)-3,4-dihydropyrazino[2,3-b]pyrazin-2(1H)-one]
IC50 (PC3 cell line; PC-3, 72 h, PC3 cell line, 3 days, average, read-out: growth inhibition IC50): 140 nM
IC50 (PC3 cell line; PC-3, prostate tumor cells, read-out: growth inhibition IC50 values): 140 to 1310 nM
IC50 (4EBP1 (T46)): 130 nM
Plasma Compound 2 Concentration (μM) Mean ± SEM ([1]; 0.1 mg/kg single oral dose, 24 h): BLQ
Plasma Concentration (μM) Mean ± SEM ([1]; 2 mg/kg QD, 10 h after last dose): 0.21 ± 0.05 µM
concentration at 0.5 h ([1]; 0.1 mg/kg, Plasma Compound 2 Concentration (μM) Mean ± SEM, 0.1 mg/kg single oral dose): 0.05 µM
concentration at 1 h ([1]; 0.1 mg/kg, Plasma Compound 2 Concentration (μM) Mean ± SEM, 0.1 mg/kg single oral dose, 1 h): 0.04 µM
concentration at 3 h ([1]; 0.1 mg/kg, Plasma Compound 2 Concentration (μM) Mean ± SEM, 0.1 mg/kg single oral dose, 3 h): 0.02 µM
concentration at 6 h ([1]; 0.1 mg/kg, Plasma Compound 2 Concentration (μM) Mean ± SEM, 0.1 mg/kg single oral dose, 6 h): 0.02 µM
concentration at 10 h ([1]; 0.1 mg/kg, Plasma Compound 2 Concentration (μM) Mean ± SEM, 0.1 mg/kg single oral dose, 10 h): 0.01 µM
concentration at 0.5 h ([1]; 0.3 mg/kg, Plasma Compound 2 Concentration (μM) Mean ± SEM, 0.3 mg/kg single oral dose): 0.16 ± 0.03 µM
concentration at 1 h ([1]; 0.3 mg/kg, Plasma Compound 2 Concentration (μM) Mean ± SEM, 0.3 mg/kg single oral dose, 1 h): 0.16 ± 0.01 µM
concentration at 3 h ([1]; 0.3 mg/kg, Plasma Compound 2 Concentration (μM) Mean ± SEM, 0.3 mg/kg single oral dose, 3 h): 0.07 ± 0.01 µM
concentration at 6 h ([1]; 0.3 mg/kg, Plasma Compound 2 Concentration (μM) Mean ± SEM, 0.3 mg/kg single oral dose, 6 h): 0.07 ± 0.01 µM
concentration at 10 h ([1]; 0.3 mg/kg, Plasma Compound 2 Concentration (μM) Mean ± SEM, 0.3 mg/kg single oral dose, 10 h): 0.04 ± 0.01 µM
concentration at 24 h ([1]; 0.3 mg/kg, Plasma Compound 2 Concentration (μM) Mean ± SEM, 0.3 mg/kg single oral dose, 24 h): 0 µM
concentration at 1 h ([1]; 1 mg/kg, 1 mg/kg BID, 1 h after last dose, read-out: Plasma Concentration (μM) Mean ± SEM): 0.73 ± 0.14 µM
concentration at 3 h ([1]; 1 mg/kg, 1 mg/kg BID, 3 h after last dose, read-out: Plasma Concentration (μM) Mean ± SEM): 0.48 ± 0.04 µM
concentration at 6 h ([1]; 1 mg/kg, 1 mg/kg BID, 6 h after last dose, read-out: Plasma Concentration (μM) Mean ± SEM): 0.22 ± 0.04 µM
concentration at 10 h ([1]; 1 mg/kg, 1 mg/kg BID, 10 h after last dose, read-out: Plasma Concentration (μM) Mean ± SEM): 0.11 ± 0.01 µM
concentration at 24 h ([1]; 1 mg/kg, 1 mg/kg BID, 24 h after last dose, read-out: Plasma Concentration (μM) Mean ± SEM): 0.02 µM
concentration at 10 h ([1]; 1 mg/kg, 1 mg/kg single dose, read-out: plasma concentration at which pS6RP and pAKT (S473) were inhibited through 10 hours): 0.12 ± 0.003 µM
concentration at 1 h ([1]; 1 mg/kg, Plasma Compound 2 Concentration (μM) Mean ± SEM, 1 mg/kg single oral dose, 1 h): 0.53 ± 0.02 µM
concentration at 3 h ([1]; 1 mg/kg, Plasma Compound 2 Concentration (μM) Mean ± SEM, 1 mg/kg single oral dose, 3 h): 0.34 ± 0.01 µM
concentration at 6 h ([1]; 1 mg/kg, Plasma Compound 2 Concentration (μM) Mean ± SEM, 1 mg/kg single oral dose, 6 h): 0.13 ± 0.01 µM
concentration at 10 h ([1]; 1 mg/kg, Plasma Compound 2 Concentration (μM) Mean ± SEM, 1 mg/kg single oral dose, 10 h): 0.12 µM
concentration at 24 h ([1]; 1 mg/kg, Plasma Compound 2 Concentration (μM) Mean ± SEM, 1 mg/kg single oral dose, 24 h): 0.005 µM
concentration at 1 h ([1]; 2 mg/kg, 2 mg/kg QD, 1 h after last dose, read-out: Plasma Concentration (μM) Mean ± SEM): 1.02 ± 0.2 µM
concentration at 3 h ([1]; 2 mg/kg, 2 mg/kg QD, 3 h after last dose, read-out: Plasma Concentration (μM) Mean ± SEM): 0.59 ± 0.08 µM
concentration at 6 h ([1]; 2 mg/kg, 2 mg/kg QD, 6 h after last dose, read-out: Plasma Concentration (μM) Mean ± SEM): 0.27 ± 0.08 µM
concentration at 10 h ([1]; 2 mg/kg, 2 mg/kg QD, 10 h after last dose, read-out: Plasma Concentration (μM) Mean ± SEM): 0.21 µM
concentration at 24 h ([1]; 2 mg/kg, 2 mg/kg QD, 24 h after last dose, read-out: Plasma Concentration (μM) Mean ± SEM): 0.02 ± 0.01 µM
concentration at 24 h ([1]; 5 mg/kg, Compound 2 in the plasma, efficacy study, 5 mg/kg QD, 24 hours after the last dose): 0.13 µM
concentration at 1 h ([1]; 10 mg/kg, Plasma Compound 2 Concentration (μM) Mean ± SEM, 10 mg/kg single oral dose, 1 h): 6.78 ± 1.16 µM
concentration at 3 h ([1]; 10 mg/kg, Plasma Compound 2 Concentration (μM) Mean ± SEM, 10 mg/kg single oral dose, 3 h): 5.69 ± 0.96 µM
concentration at 6 h ([1]; 10 mg/kg, Plasma Compound 2 Concentration (μM) Mean ± SEM, 10 mg/kg single oral dose, 6 h): 2.1 ± 0.22 µM
concentration at 10 h ([1]; 10 mg/kg, Plasma Compound 2 Concentration (μM) Mean ± SEM, 10 mg/kg single oral dose, 10 h): 1.18 ± 0.2 µM
concentration at 24 h ([1]; 10 mg/kg, Plasma Compound 2 Concentration (μM) Mean ± SEM, 10 mg/kg single oral dose, 24 h): 0.8 ± 0.09 µM
AUC(0-t) ([1]; 0.5 mg/kg, 0.5 mg/kg BID, after last dose, read-out: total plasma AUC0-10 h): 1.42 µM·h
AUC(0-t) ([1]; 1 mg/kg, 1 mg/kg BID, after last dose, read-out: total plasma AUC0-10 h): 3.27 µM·h
AUC(0-t) ([1]; 1 mg/kg, 1 mg/kg QD (BID/QD study), read-out: total plasma AUC0-24 h): 2.95 µM·h
AUC(0-t) ([1]; 1 mg/kg, 1 mg/kg QD, last day, read-out: total plasma AUC0-24 h): 2.33 µM·h
AUC(0-t) ([1]; 2 mg/kg, 2 mg/kg QD, last day, read-out: total plasma AUC0-24 h): 5.93 µM·h
AUC(0-t) ([1]; 5 mg/kg, 5 mg/kg QD, last day, read-out: total plasma AUC0-24 h): 17 µM·h

From US20140113904A1, “TREATMENT OF CANCER WITH TOR KINASE INHIBITORS” (SIGNAL PHARMACEUTICALS, LLC, priority 2012, published 2014)
